Source: the NIST ThermoML archive (doi:10.1021/je401008s)

Experiment: xn = mol fraction of the nth substance listed
Conditions: Liquid, Taylor dispersion method, x1 = 0

O=C=O [carbon dioxide] + O
Conditions	binary diffusion coefficient [m2/s]
298 K, 14000 kPa	2.23e-09
298 K, 31600 kPa	2.26e-09
298 K, 47700 kPa	2.22e-09
323 K, 14200 kPa	3.64e-09
323 K, 31800 kPa	3.72e-09
323 K, 48600 kPa	3.94e-09
348 K, 14900 kPa	5.39e-09
348 K, 31800 kPa	5.31e-09
348 K, 49300 kPa	5.37e-09
373 K, 14900 kPa	7.42e-09
373 K, 31000 kPa	7.52e-09
373 K, 48500 kPa	7.68e-09
398 K, 14300 kPa	9.95e-09
398 K, 30900 kPa	1.01e-08
398 K, 48000 kPa	1.02e-08
423 K, 14300 kPa	1.23e-08
423 K, 48000 kPa	1.22e-08

N#N [nitrogen] + O
Conditions	binary diffusion coefficient [m2/s]
298 K, 12000 kPa	1.99e-09
298 K, 25000 kPa	2e-09
298 K, 44600 kPa	1.98e-09
323 K, 14600 kPa	3.28e-09
323 K, 25100 kPa	3.47e-09
323 K, 45000 kPa	3.2e-09
373 K, 14800 kPa	6.62e-09
373 K, 45000 kPa	6.42e-09
423 K, 26900 kPa	1.07e-08
423 K, 45900 kPa	1.04e-08
